Assay results reported in patent US20260274807A1 (University of Health Sciences and Pharmacy in St. Louis, priority 2023, published 2026).

Experiments:
ERRγ = biological target: T1, ERRγ (Homo sapiens, UniProt P62508); test: ERRE luciferase reporter assay in HEK293 cells transfected with pcDNA3.1 ERRγ; format: cell-based; parameters: key to EC50 (ERRγ) μM: * <1 μM; ** 1-5 μM; *** >5 μM; i.a. (inactive); details: HEK293 cells transfected with ERRE reporter construct and pcDNA3.1 ERRγ; compound for 24 hours; luciferase activity
T1 construct: expressed in transfected cells; host or cells: HEK293
T1 sequence (P62508 1-458): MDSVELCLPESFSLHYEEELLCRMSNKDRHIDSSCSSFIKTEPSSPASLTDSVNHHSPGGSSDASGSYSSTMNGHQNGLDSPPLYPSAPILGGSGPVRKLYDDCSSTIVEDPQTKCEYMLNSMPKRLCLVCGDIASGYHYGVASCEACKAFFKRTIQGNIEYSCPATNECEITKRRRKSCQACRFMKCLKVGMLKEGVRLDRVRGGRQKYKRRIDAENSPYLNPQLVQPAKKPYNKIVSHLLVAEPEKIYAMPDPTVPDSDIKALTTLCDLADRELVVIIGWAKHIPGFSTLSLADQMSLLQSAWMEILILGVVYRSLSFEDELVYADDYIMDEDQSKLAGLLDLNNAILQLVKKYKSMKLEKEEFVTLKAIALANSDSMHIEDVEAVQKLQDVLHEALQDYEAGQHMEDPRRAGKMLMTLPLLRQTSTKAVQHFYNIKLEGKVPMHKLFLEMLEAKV
Description: (§1) HEK293 cells were maintained in Dulbecco's modified Eagles medium (DMEM) supplemented with 10% fetal bovine serum at 37° C. under […]. […] Cells were transfected with ERRE reporter construct and pcDNA3.1 ERRα or ERRγ. Twenty-four-hours post-transfection, the cells were treated with vehicle or compound (various concentrations) for 24 hours (4 wells per dose). Luciferase activity was measured using the One-Glo Tox luciferase reporter assay system (Promega) and EC50s were calculated using GraphPad Prism software.

ERRα = biological target: T2, ERRα (Homo sapiens, UniProt P11474); test: ERRE luciferase reporter assay in HEK293 cells transfected with pcDNA3.1 ERRα; format: cell-based; parameters: key to EC50 (ERRα) μM: * <1 μM; ** 1-5 μM; *** >5 μM; i.a. (inactive); details: HEK293 cells transfected with ERRE reporter construct and pcDNA3.1 ERRα; compound for 24 hours; luciferase activity
T2 construct: expressed in transfected cells; host or cells: HEK293
T2 sequence (P11474 1-423): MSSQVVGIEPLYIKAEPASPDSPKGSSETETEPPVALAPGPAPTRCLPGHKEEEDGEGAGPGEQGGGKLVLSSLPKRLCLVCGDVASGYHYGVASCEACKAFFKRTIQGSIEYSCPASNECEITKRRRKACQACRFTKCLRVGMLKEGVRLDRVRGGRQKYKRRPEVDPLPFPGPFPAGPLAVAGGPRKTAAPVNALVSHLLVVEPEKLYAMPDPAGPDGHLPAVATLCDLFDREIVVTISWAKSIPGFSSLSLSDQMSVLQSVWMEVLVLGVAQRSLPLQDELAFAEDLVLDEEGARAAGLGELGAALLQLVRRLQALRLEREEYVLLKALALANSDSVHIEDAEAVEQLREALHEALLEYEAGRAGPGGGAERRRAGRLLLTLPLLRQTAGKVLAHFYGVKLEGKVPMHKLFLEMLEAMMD
Description: as §1

Structure (SMILES)	EC50 (ERRγ) [nM]	EC50 (ERRα) [nM]	EC50 (ERRγ) μM (ERRγ)	EC50 (ERRα) μM (ERRα)
COc1ccc(-c2nnc(-c3ccc(C(F)(F)F)cc3)o2)cc1 [Entry 55, 2-(4-methoxyphenyl)-5-(4-(trifluoromethyl)phenyl)-1,3,4-oxadiazole]	–	–	i.a.	i.a.
FC(F)(F)c1cccc(-c2nnc(-c3ccccc3)o2)c1 [Entry 56, 2-phenyl-5-(3-(trifluoromethyl)phenyl)-1,3,4-oxadiazole]	< 1000	< 1000	–	–
FC(F)(F)c1cccc(-c2nnc(-c3ccco3)o2)c1 [Entry 57, 2-(furan-2-yl)-5-(3-(trifluoromethyl)phenyl)-1,3,4-oxadiazole]	1000 to 5000	< 1000	–	–
FC(F)(F)c1cccc(-c2nnc(-c3cccs3)o2)c1 [Entry 58, 2-(thiophen-2-yl)-5-(3-(trifluoromethyl)phenyl)-1,3,4-oxadiazole]	< 1000	< 1000	–	–
FC(F)(F)c1cccc(-c2nnc(-c3ccnc4ccccc34)o2)c1 [Entry 59, 2-(quinolin-4-yl)-5-(3-(trifluoromethyl)phenyl)-1,3,4-oxadiazole]	1000 to 5000	< 1000	–	–
FC(F)(F)c1cccc(-c2nnc(-c3ccc4ccccc4n3)o2)c1 [Entry 60, 2-(quinolin-2-yl)-5-(3-(trifluoromethyl)phenyl)-1,3,4-oxadiazole]	1000 to 5000	1000 to 5000	–	–
FC(F)(F)c1cccc(-c2nnc(-c3ccccn3)o2)c1 [Entry 61, 2-(pyridin-2-yl)-5-(3-(trifluoromethyl)phenyl)-1,3,4-oxadiazole]	< 1000	< 1000	–	–
O=[N+]([O-])c1cccc(-c2nnc(-c3cccc(C(F)(F)F)c3)o2)c1 [Entry 63, 2-(3-nitrophenyl)-5-(3-(trifluoromethyl)phenyl)-1,3,4-oxadiazole]	> 5000	1000 to 5000	–	–
FC(F)(F)c1cccc(-c2nnc(-c3ccccc3Cl)o2)c1 [Entry 65, 2-(2-chlorophenyl)-5-(3-(trifluoromethyl)phenyl)-1,3,4-oxadiazole]	> 5000	1000 to 5000	–	–
COc1cccc(-c2nnc(-c3cccc(C(F)(F)F)c3)o2)c1 [Entry 66, 2-(3-methoxyphenyl)-5-(3-(trifluoromethyl)phenyl)-1,3,4-oxadiazole]	1000 to 5000	1000 to 5000	–	–
Nc1ccccc1-c1nnc(-c2ccccc2)o1 [Entry 68, 2-(5-phenyl-1,3,4-oxadiazol-2-yl)aniline]	1000 to 5000	1000 to 5000	–	–
Nc1cccc(-c2nnc(-c3ccccc3)o2)c1 [Entry 69, 3-(5-phenyl-1,3,4-oxadiazol-2-yl)aniline]	< 1000	< 1000	–	–
Nc1ccc(-c2nnc(-c3ccccc3)o2)cc1 [Entry 70, 4-(5-phenyl-1,3,4-oxadiazol-2-yl)aniline]	< 1000	< 1000	–	–
COc1ccc(-c2nnc(-c3ccccc3)o2)c(N)c1 [Entry 71, 5-methoxy-2-(5-phenyl-1,3,4-oxadiazol-2-yl)aniline]	< 1000	< 1000	–	–
Nc1cc(Br)ccc1-c1nnc(-c2ccccc2)o1 [Entry 72, 5-bromo-2-(5-phenyl-1,3,4-oxadiazol-2-yl)aniline]	1000 to 5000	< 1000	–	–
COc1ccc(-c2nnc(-c3ccccc3N)o2)cc1 [Entry 74, 2-(5-(4-methoxyphenyl)-1,3,4-oxadiazol-2-yl)aniline]	< 1000	< 1000	–	–
CC(C)(C)c1ccc(-c2nnc(-c3ccccc3N)o2)cc1 [Entry 75, 2-(5-(4-(tert-butyl)phenyl)-1,3,4-oxadiazol-2-yl)aniline]	< 1000	< 1000	–	–
Cc1ccc(-c2nnc(-c3ccccc3[N+](=O)[O-])o2)o1 [Entry 76, 2-(5-methylfuran-2-yl)-5-(2-nitrophenyl)-1,3,4-oxadiazole]	1000 to 5000	1000 to 5000	–	–
O=[N+]([O-])c1cccc(-c2nnc(-c3ccccc3)o2)c1 [Entry 81, 2-(3-nitrophenyl)-5-phenyl-1,3,4-oxadiazole]	1000 to 5000	1000 to 5000	–	–
O=[N+]([O-])c1ccc(Br)cc1-c1nnc(-c2ccccc2)o1 [Entry 84, 2-(5-bromo-2-nitrophenyl)-5-phenyl-1,3,4-oxadiazole]	> 5000	> 5000	–	–
COc1ccc(-c2nnc(-c3ccccc3)o2)c([N+](=O)[O-])c1 [Entry 86, 2-(4-methoxy-2-nitrophenyl)-5-phenyl-1,3,4-oxadiazole]	< 1000	< 1000	–	–
COc1ccc([N+](=O)[O-])c(-c2nnc(-c3ccccc3)o2)c1 [Entry 87, 2-(5-methoxy-2-nitrophenyl)-5-phenyl-1,3,4-oxadiazole]	> 5000	1000 to 5000	–	–
COc1cccc(-c2nnc(-c3ccccc3)o2)c1[N+](=O)[O-] [Entry 88, 2-(3-methoxy-2-nitrophenyl)-5-phenyl-1,3,4-oxadiazole]	< 1000	< 1000	–	–
Cc1cccc(-c2nnc(-c3ccccc3)o2)c1[N+](=O)[O-] [Entry 89, 2-(3-methyl-2-nitrophenyl)-5-phenyl-1,3,4-oxadiazole]	< 1000	< 1000	–	–
O=[N+]([O-])c1c(Cl)cccc1-c1nnc(-c2ccccc2)o1 [Entry 90, 2-(3-chloro-2-nitrophenyl)-5-phenyl-1,3,4-oxadiazole]	1000 to 5000	1000 to 5000	–	–

Second part, the compound after the results:

EC50 (ERRγ) [nM]	EC50 (ERRα) [nM]	EC50 (ERRγ) μM (ERRγ)	EC50 (ERRα) μM (ERRα)	Structure (SMILES)
> 5000	> 5000	–	–	FC(F)(F)c1ccc(-c2nnc(-c3ccnc4ccccc34)o2)cc1 [Entry 47, 2-(quinolin-4-yl)-5-(4-(trifluoromethyl)phenyl)-1,3,4-oxadiazole]
–	–	i.a.	i.a.	FC(F)(F)c1ccc(-c2nnc(-c3ccc4ccccc4n3)o2)cc1 [Entry 48, 2-(quinolin-2-yl)-5-(4-(trifluoromethyl)phenyl)-1,3,4-oxadiazole]
< 1000	< 1000	–	–	FC(F)(F)c1ccc(-c2nnc(-c3ccccn3)o2)cc1 [Entry 49, 2-(pyridin-2-yl)-5-(4-(trifluoromethyl)phenyl)-1,3,4-oxadiazole]
1000 to 5000	1000 to 5000	–	–	O=[N+]([O-])c1ccccc1-c1nnc(-c2ccc(C(F)(F)F)cc2)o1 [Entry 50, 2-(2-nitrophenyl)-5-(4-(trifluoromethyl)phenyl)-1,3,4-oxadiazole]
–	–	i.a.	i.a.	O=[N+]([O-])c1cccc(-c2nnc(-c3ccc(C(F)(F)F)cc3)o2)c1 [Entry 51, 2-(3-nitrophenyl)-5-(4-(trifluoromethyl)phenyl)-1,3,4-oxadiazole]
> 5000	> 5000	–	–	O=[N+]([O-])c1ccc(-c2nnc(-c3ccc(C(F)(F)F)cc3)o2)cc1 [Entry 52, 2-(4-nitrophenyl)-5-(4-(trifluoromethyl)phenyl)-1,3,4-oxadiazole]
1000 to 5000	< 1000	–	–	FC(F)(F)c1ccc(-c2nnc(-c3ccccc3Cl)o2)cc1 [Entry 53, 2-(2-chlorophenyl)-5-(4-(trifluoromethyl)phenyl)-1,3,4-oxadiazole]
> 5000	> 5000	–	–	COc1cccc(-c2nnc(-c3ccc(C(F)(F)F)cc3)o2)c1 [Entry 54, 2-(3-methoxyphenyl)-5-(4-(trifluoromethyl)phenyl)-1,3,4-oxadiazole]
1000 to 5000	1000 to 5000	–	–	O=[N+]([O-])c1ccccc1-c1nnc(-c2cccc(C(F)(F)F)c2)o1 [Entry 62, 2-(2-nitrophenyl)-5-(3-(trifluoromethyl)phenyl)-1,3,4-oxadiazole]
1000 to 5000	1000 to 5000	–	–	O=[N+]([O-])c1ccccc1-c1nnc(-c2ccccc2)o1 [Entry 80, 2-(2-nitrophenyl)-5-phenyl-1,3,4-oxadiazole]
< 1000	< 1000	–	–	COc1ccc(-c2nnc(-c3ccccc3[N+](=O)[O-])o2)cc1 [Entry 82, 2-(4-methoxyphenyl)-5-(2-nitrophenyl)-1,3,4-oxadiazole]
< 1000	< 1000	–	–	CC(C)(C)c1ccc(-c2nnc(-c3ccccc3[N+](=O)[O-])o2)cc1 [Entry 83, 2-(4-(tert-butyl)phenyl)-5-(2-nitrophenyl)-1,3,4-oxadiazole]
